Measured values from patent US20160319324A1, “MODULATORS OF GLYCEROPHOSPHODIESTER PHOSPHODIESTERASE PROTEINS” (THE JOHNS HOPKINS UNIVERSITY, priority 2013, published 2016).

Assays:
[1] = target: T1, GDE3 (Homo sapiens, UniProt Q9HCC8); assay: validation and site of action of candidate drugs from fresh powder by western blot analysis and surface biotinylation assay; assay type: cell-based; settings: for release of CNTFR into the medium: HEK293T cells transfected with Luc-CNTFR and GDE3; for release of CNTFR into the medium / expression and localization of CNTFR and GDE3: 10 μM in 0.1% DMSO, 24 hours treatment; for expression and localization of CNTFR and GDE3: western blot banding pattern and surface biotinylation
T1 construct: expressed in transfected cells; host or cells: HEK293T
T1 sequence (Q9HCC8 1-539): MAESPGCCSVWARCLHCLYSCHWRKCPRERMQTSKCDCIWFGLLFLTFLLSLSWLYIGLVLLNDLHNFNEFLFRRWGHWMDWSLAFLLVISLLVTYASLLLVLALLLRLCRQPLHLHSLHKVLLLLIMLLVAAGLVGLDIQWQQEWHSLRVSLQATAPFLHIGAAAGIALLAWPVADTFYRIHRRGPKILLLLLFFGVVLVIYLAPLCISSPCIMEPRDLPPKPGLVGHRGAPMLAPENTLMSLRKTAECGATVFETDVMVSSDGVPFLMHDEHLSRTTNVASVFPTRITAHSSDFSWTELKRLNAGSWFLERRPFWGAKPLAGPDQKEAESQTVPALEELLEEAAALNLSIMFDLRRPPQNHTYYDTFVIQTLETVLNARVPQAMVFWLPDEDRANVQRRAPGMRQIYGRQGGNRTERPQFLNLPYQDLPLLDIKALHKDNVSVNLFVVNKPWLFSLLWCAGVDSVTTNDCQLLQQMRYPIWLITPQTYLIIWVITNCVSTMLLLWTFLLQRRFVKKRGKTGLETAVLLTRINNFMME
Method: FIG. 10. Validation and identification of the site of action of candidate drugs. Drugs hit by a high-throughput screening were prepared from the fresh powders and their activity was tested by established western blot analysis. […] Concentration of drugs=10 μM.
HEK293T cells were cultured in DMEM with 10% FBS on polyethyleneimine (PEI)-coated 12 well plates and transfected using Fugene6 agent (Roche). 24 hours after transfection, medium was changed to serum free DMEM and cells were incubated for an additional 24 hours. Medium and cell lysates were collected separately, and secretion and expression of proteins were analyzed by western blot and quantified using ImageJ (NIH). Antibodies used in Western analyses were rabbit-anti Jag1 (1:1000, Santa Cruz); rabbit anti-CRD (1:250, gift from Paul Englund) and mouse anti-myc (1.5 μg/ml for IP, DSHB) and as described.
Surface biotinylation assay was performed as previously described (29). Briefly, thirty hours after transfection of HEK293T cells with RECK/GDE and CreER constructs, cells were cooled on ice, washed twice with ice cold PBS++(1×PBS, 1 mM CaCl2, 0.5 mM MgCl2) and then incubated with PBS++ containing 1 mg/ml Sulfo-NHS-SSBiotin (Pierce) for 30 min at 4° C. Unreacted biotin was quenched by PBS++ containing 100 mM Glycine. Cultures were harvested in RIPA buffer, sonicated, and centrifuged at […] for 20 min at 4° C. The supernatant was rotated with Streptavidin beads (Pierce) for 2 hr at 4° C. Precipitates were washed with RIPA buffer three times and eluted with SDS gel loading buffer.
Currently, specific pharmacological modulators for GPI-AP cleavage have not been identified due to poor characterization of GPI-AP cleaving enzymes and the absence of an in vitro assay system. The robust GPI-AP cleaving activity of 6-TM GDEs has allowed the establishment of a luciferase-based, high throughput drug screening assay (signal to noise ratio=44.6; signal to background ratio=7.0; Z′ score=0.6: an excellent assay category). Measuring the GDE3-dependent release of GPI-anchored luciferase into the medium, the present inventors screened 3,360 compounds of the Johns Hopkins Drug library (JHDL), which contains FDA approved and phase II clinical trial drugs. The present inventors have selected common hits, which reduce or increase the release of luciferase activity into the medium more than 3 standard deviations of DMSO controls from duplicated experiments and identified 163 inhibitors (4.9%) and 138 activators (4.1%). Since the assay targets the whole GPI synthesis pathway as well as GPI cleaving activity, it is crucial to identify the site of action. Candidate drugs could modulate different steps of synthesis and cleavage of GPI-APs and will be categorized as follow: drugs activate or inhibit (i) the GPI biosynthesis machinery, (ii) glycosylation, (iii) surface expression of GPI-AP or GDE3, (iv) GPI cleaving activity of GDE, or (v) GPI cleaving-independent secretion of GPI-AP. Among 163 inhibitors, 23 drugs have been prepared from fresh powder stocks and their sites of action were tested by established western blot analyses and results are as follows: 10 drugs (no effect), 9 drugs (reducing surface expression and/or glycosylation of GPI-APs), and 4 drugs (inhibiting GPI-cleaving activity).
JHDL was used to screen drugs that affect the release of Luc-CNTFR into the medium. Drugs that increase or decrease the release index more than 3 SD of 16 DMSO controls of each plate were selected. Common hits of duplicated independent experiments were further analyzed. Among 3,360 drugs screened, we have identified 163 inhibitors and 138 activators. Among 163 inhibitors, 23 compounds were prepared from a fresh powder and their site of action was analyzed (10 μM in 0.1% DMSO, 24 hours treatment). To test whether drugs affect glycosylation and/or surface expression of CNTFR or GDE3, banding pattern of Western blot analysis and surface biotinylation assay were performed (FIG. 10). […]

[2] = target: Luc-CNTFR (firefly) [luciferase: P08659]; assay: cell-based or functional assay
Chain of Luc-CNTFR (firefly) [luciferase: P08659] (P08659 whole entry): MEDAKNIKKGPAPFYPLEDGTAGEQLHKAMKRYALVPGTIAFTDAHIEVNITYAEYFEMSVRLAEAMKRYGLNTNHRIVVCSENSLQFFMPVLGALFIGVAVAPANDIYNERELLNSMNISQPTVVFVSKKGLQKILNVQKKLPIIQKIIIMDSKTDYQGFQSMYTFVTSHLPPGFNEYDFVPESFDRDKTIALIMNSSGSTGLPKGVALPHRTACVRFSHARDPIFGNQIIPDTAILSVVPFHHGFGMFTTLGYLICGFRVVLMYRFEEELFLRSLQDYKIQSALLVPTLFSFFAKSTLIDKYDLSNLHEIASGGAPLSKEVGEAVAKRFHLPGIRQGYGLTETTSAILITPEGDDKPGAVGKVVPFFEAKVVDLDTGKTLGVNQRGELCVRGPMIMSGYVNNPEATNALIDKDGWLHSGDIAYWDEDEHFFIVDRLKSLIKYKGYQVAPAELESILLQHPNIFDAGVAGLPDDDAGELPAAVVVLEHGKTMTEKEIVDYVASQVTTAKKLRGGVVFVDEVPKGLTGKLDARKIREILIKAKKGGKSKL

[3] = Concentration of drugs=10 μM, western blot

Compound	release of CNTFR into the medium ([1]; western blot)	expression and localization of CNTFR and GDE3 [1]	other results
O=C(O)CCC(=O)c1ccc(-c2ccccc2)cc1 [fenbufen]	increase the release of CNTFR into the medium		
GDE3 (enzyme)			release index (luciferase activity in the medium/cell lysate) [2]: 7 fold
CC[C@H]1OC(=O)[C@H](C)[C@@H](O[C@H]2C[C@@](C)(OC)[C@@H](O)[C@H](C)O2)[C@H](C)[C@@H](O[C@@H]2O[C@H](C)C[C@H](N(C)C)[C@H]2O)[C@](C)(O)C[C@@H](C)C(=O)[C@H](C)[C@@H](O)[C@]1(C)O [erythromycin]	inhibitor of the release of CNTFR	without affecting expression and localization of CNTFR and GDE3	lysate level of CNTFR [1, 3]: without affecting the lysate level; release of CNTFR into the medium ([1]; western blot, listed as Erythromycin): inhibits the release of CNTFR
CN1[C@@H]2CC[C@H]1C[C@@H](OC(c1ccccc1)c1ccccc1)C2 [benzotropine]			glycosylation pattern of CNTFR [1, 3]: affect glycosylation pattern of CNTFR
vitamin B12	inhibitor of the release of CNTFR	without affecting expression and localization of CNTFR and GDE3	
COc1c(C)c2c(c(O)c1C/C=C(\C)CCC(=O)O)C(=O)OC2 [mycophenolic acid]			glycosylation pattern of CNTFR [1, 3]: affect glycosylation pattern of CNTFR
COc1ccc(CN(CCN(C)C)c2ccccn2)cc1 [pyrilamine]	increase the release of CNTFR into the medium		
CCCCCCCCC(=O)NCc1ccc(O)c(OC)c1 [nonivamide]	inhibitor of the release of CNTFR	without affecting expression and localization of CNTFR and GDE3	
N[C@@H](Cc1cc(I)c(Oc2cc(I)c(O)c(I)c2)c(I)c1)C(=O)O [thyroxine]	inhibitor of the release of CNTFR	without affecting expression and localization of CNTFR and GDE3	
